The test system of one experiment is anaerobic bacteria. Put plainly: MIC on anaerobic bacteria (all strains). It counts as cell-based. The settings on record: for MIC: 3 strains. As to the method: Bacteria from cultures in […].) medium on Petri dishes, grown overnight at 35° C. in an anaerobic jar, were resuspended in Brucella broth. The suspensions were adjusted to 1.0×10^8 cells/ml and distributed (0.2 ml/well) in microtiter plates (96-well U-bottomed plate). At the same time, 0.3 log dilutions of the substances are mixed with W. C. agar medium in four-sectioned Petri dishes, which are then seeded with the bacterial suspension by means of a multipoint inoculator (1.0×10^5 cells/spot). The plates are then incubated at 35° C. for 48 hours in an anaerobic jar) (See J. E. ROSENBLATT, Antimicrobial susceptibility testing of anaerobes, in Antibiotics in laboratory medicine. V. LORIAN Ed., II edition, 6, 159-180, Williams & Wilkins, Baltimora, Md 21202 U.S.A.).

The subject of a further experiment is Candida strains. Put plainly: MIC on Candida strains (all clinical isolates). It counts as cell-based, Candida albicans. The settings on record: for MIC: Candida clinical isolates, 10 strains. On the procedure: Overnight yeast cultures in Sabouraud broth are appropriately washed and diluted in Yeast Nitrogen Base supplemented with asparagine and glucose (Y.N.B.s.) to yield approximately 5.0×10^4 CFU/ml in microtiter wells. Substance dilutions (0.3 log) in Y.N.B.s. are added to these suspensions to a final concentration range from 0.19 to 100 mcg/ml. Microtiter plates are then incubated at 35° C. for 24-48 hours (See PFALLER M., RINALDI M. G., […] J. M., BARTLETT M. S., BODY B. A., ESPINEL-INGROFF A., FROMTLING R. A., HALL G. S., HUGHES G. E., ODDS F. C., SUGAR A. M., Collaborative investigator of variables in susceptibility testing of yeasts, Ant. Agent and Chemoth., 34, 9:1648-1656, 1990. COOK R., McINTYRE K. A., […] J. M., Effects of incubation temperature, inoculum size, and medium on agreement of macro and microdilution broth susceptibility test, results for yeasts, Ant. Agent and Chemoth., 34, 8:1542-1545, 1990. […] E., PAETZNICK V., BODEY G. P., Fluconazole susceptibility testing of "Candida albicans" microtiter method that is indipendent of inoculum size, temperature, and time of reaching, Ant. Agent and Chemoth., 35, 8:1641-1646, 1991).

For the next experiment, the system named is Mucor mucedo. Put plainly: MIC on filamentous fungi. In kind it is cell-based. The conditions noted are these: ATCC7941; Mucor mucedo ATCC 7941, lab collection; read-out: Minimal Inhibitory Concentration. On the procedure: (§1) The conidia are collected from 72-hour cultures in Sabouraud agar by washing them with Sabouraud broth and 0.5% Tween 80. After a coarse filtration and washing, the resulting suspensions are adjusted to a final concentration of approx. 5.0×10^4 CFU/ml in a microtiter plate. The substances (0.3 log dilutions in Y.N.B.s.) are added to the fungal suspensions in order to generate a range of final concentrations from 0.19 to 100 mcg/ml. The microtiter plates are then incubated at 35° C. for 48-72 hours.

The subject of another experiment is Aspergillus niger. As to the kind of experiment: MIC on filamentous fungi. In kind it is cell-based. The conditions noted are these: ATCC16404; Aspergillus niger ATCC 16404, lab collection; read-out: Minimal Inhibitory Concentration. As to the method:
as §1

Another experiment relates to Penicillium sp. As to the kind of experiment: MIC on filamentous fungi. In kind it is cell-based. The settings on record: Penicillium sp. 1302, lab collection; read-out: Minimal Inhibitory Concentration. As to the method: as §1
The subject of another experiment is Fusarium sp. Put plainly: MIC on filamentous fungi. The settings on record: Fusarium sp. F 77, lab collection; read-out: Minimal Inhibitory Concentration. In kind it is cell-based. As to the method:
as §1

In the next experiment the test system is Aspergillus fumigatus. Put plainly: MIC on filamentous fungi. In kind it is cell-based. The settings on record: ATCC28212; Aspergillus fumigatus ATCC 28212, lab collection; read-out: Minimal Inhibitory Concentration. As to the method: as §1
For the next experiment, the system named is K. oxytoca. As to the kind of experiment: MIC on Gram negative bacteria. It counts as cell-based. The conditions noted are these: Klebsiella oxytoca; K. oxytoca 552, lab collection; read-out: Minimal Inhibitory Concentration. As to the method: (§2) Bacterial suspensions are prepared from an overnight culture in Mueller-Hinton broth and are adjusted, in the same medium, to a final concentration of 5.0×10^4 cells/ml in each well of a 96-well microtiter plate. Substance dilutions (0.3 log) in Mueller-Hinton broth are added to the suspensions in order to have a range of final concentrations from 0.19 to 100 mcg/ml.
(§3) Microtiters are then incubated at 37° C. for 18 hours. (See L. D. THRUPP, Susceptibility testing of antibiotics in liquid media, in: Antibiotics in laboratory medicine. V. LORIAN Ed., II edition, 4, 93-150, Williams & Wilkins, Baltimora, Md. 21202 U.S.A.).

A further experiment concerns P. vulgaris. Put plainly: MIC on Gram negative bacteria. The settings on record: Proteus vulgaris; P. vulgaris UM, lab collection; read-out: Minimal Inhibitory Concentration. It counts as cell-based. On the procedure: as §2, §3
In the next experiment the test system is S. typhimurium. Put plainly: MIC on Gram negative bacteria. It counts as cell-based. The conditions noted are these: Salmonella enterica; S. typhimurium DS, lab collection; read-out: Minimal Inhibitory Concentration. On the procedure:
as §2, §3

The subject of experiment [1] is E. coli (Escherichia coli). As to the kind of experiment: MIC on Gram negative bacteria. It counts as cell-based. The settings on record: read-out: Minimal Inhibitory Concentration. On the procedure:
as §2, §3

For the next experiment, the system named is E. aerogenes. Put plainly: MIC on Gram negative bacteria. In kind it is cell-based. The settings on record: Klebsiella aerogenes; E. aerogenes UM, lab collection; read-out: Minimal Inhibitory Concentration. On the procedure:
as §2, §3

Another experiment deals with Pseudomonas aeruginosa. Put plainly: MIC on Gram negative bacteria. It counts as cell-based. The settings on record: Pseudomonas aeruginosa IDI 3530, clinical isolate (ulcer); read-out: Minimal Inhibitory Concentration. On the procedure:
as §2, §3

The subject of another experiment is Enterobacter cloacae. As to the kind of experiment: MIC on Gram negative bacteria. It counts as cell-based. The settings on record: Enterobacter cloacae SG 3 II, clinical isolate; read-out: Minimal Inhibitory Concentration. On the procedure:
as §2, §3

A further experiment relates to Klebsiella pneumoniae. As to the kind of experiment: MIC on Gram negative bacteria. In kind it is cell-based. The settings on record: Klebsiella pneumoniae SG 5 II, clinical isolate; read-out: Minimal Inhibitory Concentration. As to the method:
as §2, §3

The next experiment has as its system Proteus sp. As to the kind of experiment: MIC on Gram negative bacteria. In kind it is cell-based. The settings on record: Proteus sp. SG 9 II, clinical isolate; read-out: Minimal Inhibitory Concentration. As to the method:
as §2, §3

The mark [2] stands for this setting: Escherichia coli SG 4 II, clinical isolate.

Like-named read-outs stand apart in the source and are kept apart here.

On to `CCCCCCCCCCCOC(=O)C[C@H](C[N+](C)(C)C)OC(=O)CC(C)C` [ST 1103, isovaleryl L-carnitine undecyl ester methanesulfonate, reference compound], for which the MIC against anaerobic bacteria was determined as 11.4 µg/mL; with Candida strains, 4.68 µg/mL; in the experiment with Mucor mucedo, 50 µg/mL; in the experiment with Aspergillus niger, 12.5 µg/mL; in the experiment with Penicillium sp. it was 12.5 µg/mL; in the experiment on Fusarium sp., 6.25 µg/mL. Moreover, the MIC amounted to 12.5 µg/mL in the experiment on Aspergillus fumigatus; 12.5 µg/mL in the experiment with K. oxytoca; 50 µg/mL in the experiment on P. vulgaris; 25 µg/mL in the experiment with S. typhimurium; 25 µg/mL in experiment [1] (E. coli 92 F, lab collection); 25 µg/mL in experiment [1] (setting [2]). Moreover, the MIC in the experiment on E. aerogenes was 25 µg/mL; with Pseudomonas aeruginosa, 25 µg/mL; in the experiment on Enterobacter cloacae, 25 µg/mL; with Klebsiella pneumoniae, 50 µg/mL; in the experiment on Proteus sp., 50 µg/mL.
Turning to `CCCCCCCCCCC(=O)O[C@H](CC(=O)OCc1ccc(COC(=O)C[C@H](C[N+](C)(C)C)OC(=O)CCCCCCCCCC)cc1)C[N+](C)(C)C` [ST 1226, bis(undecanoyl L-carnitine chloride)p-xylilene diester], the “mean MIC value compared with ST 1103” value in the experiment with anaerobic bacteria is “smaller than ST 1103”. The MIC worked out at 8.33 µg/mL in the experiment with anaerobic bacteria; 2.49 µg/mL against Candida strains; 25 µg/mL in the experiment with Mucor mucedo; 6.25 µg/mL in the experiment on Aspergillus niger; 1.56 µg/mL in the experiment with Penicillium sp.; 3.12 µg/mL in the experiment on Fusarium sp.. Moreover, the MIC in the experiment on Aspergillus fumigatus came out at 6.25 µg/mL; in the experiment on K. oxytoca, 25 µg/mL; in the experiment with P. vulgaris, 50 µg/mL; in the experiment with S. typhimurium, 25 µg/mL; in experiment [1] (E. coli 92 F, lab collection), 25 µg/mL; in experiment [1] (setting [2]) it was 12.5 µg/mL. Moreover, the MIC is 6.25 µg/mL in the experiment on E. aerogenes; 50 µg/mL in the experiment with Pseudomonas aeruginosa; 12.5 µg/mL in the experiment on Enterobacter cloacae; 50 µg/mL in the experiment with Klebsiella pneumoniae; 50 µg/mL in the experiment on Proteus sp.. Further, in the experiment on Candida strains (yeast-like strains, mostly Candida clinical isolates), the “activity compared with ST 1103” value is on record as “higher activity than ST 1103, mostly against Candida clinical isolates”.
